Assay results as given in US20010018209A1, “Cell compositions” (Takara Shuzo Co., Ltd., priority 1996, published 2001).

Key:
HL-60 cells [1] = experiment: Cell growth inhibitory activity by MTT, absorbance at 590 nm (HL-60 compared with HUVEC); type: cell-based; details: final 1-100 μM, 48 hours
[2] = system: fibroblasts, NIH/3T3 cells (ATCC CRL-1658); experiment: Cell growth inhibitory activity, MTT, observed under a microscope; type: cell-based; details: 48 hours
Procedure: (§1) (3) The fibroblasts, NIH/3T3 cells (ATCC CRL-1658), were dispersed with trypsin according to a conventional method and suspended in Dulbecco modified Eagle's culture medium containing 10% bovine serum at a concentration of 5× 10^4 cells/ml. Then, each 90 μl portion thereof was distributed into each well of a 96-well microtiter plate. To each well was added an aqueous solution (10 μl) of 15.6, 31.3, 62.5, 125, 250, 500 or 1,000 μM cyclopentenone, or water (10 μl) as a control and the cells on that plate were incubated at 37° C. for 48 hours in the presence of 5% CO2. Further, 5 mg/ml MTT phosphate buffered saline (10 μl) was added and the incubation was continued for additional 4 hours. Cell growth was observed under a microscope and the apoptosis inducing activity was estimated as cell growth inhibitory activity.

HL-60 cells [3] = experiment: as above; type: cell-based; details: 48 hours
Procedure: as §1
The same procedure was repeated with respect to HL-60 cells except that the cells were cultured in RPMI1640 culture medium containing 10% fetal bovine serum.

cancer cells = experiment: Apoptosis after addition to a culture broth of cancer cells (general statement); type: cell-based; details: within one to several days after addition
normal cells = experiment: Toxicity / apoptosis against normal cells (general statement); type: cell-based
mouse = experiment: Toxicity on administration to mouse (general statement); details: in vivo
[4] = system: Myeloma cells (P3X63Ag8U.1, ATCC CRL-1597); experiment: Apoptosis induction / living cell number in cultured myeloma cells (trypan blue, microscope); type: cell-based; details: 1 mg/ml, 60 hours
Procedure: Myeloma cells (P3X63Ag8U.1, ATCC CRL-1597) were cultured at 37° C. in RPMI1640 culture medium (manufactured by Gibco) containing 10% fetal bovine serum (manufactured by JRH Bioscience) treated at 56° C. for 30 minutes and they were suspended in RPMI1640 culture medium containing 10% fetal bovine serum at a concentration of 2.5×10^5 cells/4.5 ml. On the other hand, a dextran sulfate (molecular weight: 0.5 million, manufactured by Oncor) was dissolved in 50 mM HEPES buffer (pH 7.0) containing 120 mM sodium chloride at a concentration of 10 mg/ml and sterilized by filtration. This solution (0.5 ml) was added to the above suspension (4.5 ml) and incubated at 37° C. for 60 hours in the presence of 5% CO2.
The incubated cells were observed under a microscope to examine the degree of growth and cell morphology. […] After initiation of incubation, the living cell number was counted with time by trypan blue staining.
Next, A dextran sulfate (molecular weight: 0.5 million, manufactured by Oncor) was dissolved in 50 mM HEPES buffer (pH 7.0) containing 120 mM sodium chloride in concentration of 10 mg/ml, and treated by heating at 120° C. for 20 minutes. According to the same manner as described above, apoptosis inducing activity was determined by using the dextran sulfate.

Compound	cell growth inhibitory activity, HL-60 compared with HUVEC (HL-60 cells [1])	cell growth ([2]; final concentration of 12.5 μM)	cell growth ([2]; final concentration of 25 μM)	selectivity, tumor cell line HL-60 compared with non-tumor cell line NIH/3T3 (HL-60 cells [3])	cell growth (HL-60 cells [3]; final concentration of 6.25 μM)	cytocidal effect (HL-60 cells [3]; final concentration of 6.25 μM)	apoptosis of cancer cells (cancer cells)	toxicity against normal cells (normal cells)	toxicity in mouse (mouse)	apoptosis inducing activity [4]	cell morphology under a microscope (characteristics of apoptosis) [4]
O=C1C=CC(O)C1O (centres unmarked) [cyclopentenone, 4,5-dihydroxy-2-cyclopenten-1-one]	stronger cell growth inhibitory activity to the cancer cells, HL-60 cells than that to the normal cells, HUVEC cells	the same cell growth as that of the water-added control group	no cell growth was observed	selective cell growth inhibitory activity and cytocidal activity	no cell growth was observed	almost all the cells were killed	apoptosis of the cancer cells is caused	does not show any toxicity against normal cells	does not show any toxicity against mouse	–	–
dextran sulfate	–	–	–	–	–	–	–	–	–	strong apoptosis inducing activity	exhibited characteristics of apoptosis such as cell shrinkage, cell nuclear fragmentation
